Experimental data: ChEMBL document CHEMBL1121522, “Binding specificities of adenosine aminohydrolase from calf intestinal mucosa with dialdehydes derived from hexofuranosyladenine nucleosides” (J Med Chem, 1980)

Experiments:
[1] = system: adenosine aminohydrolase (adenosine deaminase); experiment: Kinetic Constant (Km) against Adenosine Aminohydrolase was determined from calf intestinal mucosa; format: ADME, Bos taurus; settings: cattle
Bos taurus = organism: Bos taurus; experiment: Kinetic constant (Vmax) against Adenosine Aminohydrolase was determined from calf intestinal mucosa; format: ADME; settings: cattle, in vitro
Adenosine deaminase = target: T1, Adenosine deaminase (Bos taurus, UniProt P56658); experiment: Inhibition constant against Adenosine deaminase was determined from calf intestinal mucosa
T1 sequence (P56658 whole entry): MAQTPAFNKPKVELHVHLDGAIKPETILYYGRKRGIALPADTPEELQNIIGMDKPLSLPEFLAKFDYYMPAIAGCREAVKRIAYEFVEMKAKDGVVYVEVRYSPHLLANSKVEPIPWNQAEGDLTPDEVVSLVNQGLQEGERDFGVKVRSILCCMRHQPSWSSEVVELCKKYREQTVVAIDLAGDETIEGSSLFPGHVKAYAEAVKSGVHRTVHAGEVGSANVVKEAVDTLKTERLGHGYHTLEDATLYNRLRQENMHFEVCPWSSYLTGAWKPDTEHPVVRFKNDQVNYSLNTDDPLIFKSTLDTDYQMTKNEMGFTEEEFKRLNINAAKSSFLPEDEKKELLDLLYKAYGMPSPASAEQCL

SMILES | Km [1] | Vmax (Bos taurus) | Ki (Adenosine deaminase)
CC(O)[C@H](C=O)O[C@@H](C=O)n1cnc2c(N)ncnc21 (stereo partly drawn) | 140 µM | 0.41 µmol/min/mg | 370 µM
C=C[C@@H](C=O)O[C@@H](C=O)n1cnc2c(N)ncnc21 | – | – | 50 µM
C=C[C@H](C=O)O[C@H](C=O)n1cnc2c(N)ncnc21 | – | – | 7 µM
CC(O)[C@@H](C=O)O[C@@H](C=O)n1cnc2c(N)ncnc21 (stereo partly drawn) | 350 µM | 0.46 µmol/min/mg | 430 µM
